Patent US20120270237A9, “METHODS FOR THE IDENTIFICATION OF KINASE INTERACTING MOLECULES AND FOR THE PURIFICATION OF KINASE PROTEINS” (Cellzone AG, priority 2009, published 2012)

Experiments:
Assay in all cases: Kinobeads competition binding with immobilized CZC25342, mixed HeLa placenta lysates (Example 5, Table 7)
[1] = target: T1, kinases from mixed HeLa placenta lysates (Homo sapiens, UniProt Q9Y2U5); conditions: kinase MAP3K2; 10 μM free compound; HeLa Placenta lysate mix
T1 construct: capturing and identification of kinases from mixed HeLa placenta lysates; endogenous in cells; host or cells: mixed lysate of HeLa cells and placenta tissue
Experimental: (§1) To one aliquot of cell lysate 10 μM of the free compound (FIG. 2, CZC25342) was added and allowed to bind to proteins in the lysate. Then the affinity matrix with the immobilized compound was added to capture proteins that were not interacting with the previously added free compound. Beads were separated from the lysate and bead bound proteins were eluted in SDS sample buffer and subsequently separated by SDS-Polyacrylamide gel electrophoresis (FIG. 11). Suitable gel bands were cut out and subjected to in-gel proteolytic digestion with trypsin. The second lysate aliquot was processed identically, however no free compound was added (DMSO solvent control). Peptides originating from samples 1 and 2 were labeled with iTRAQ reagents (iTRAQ 114 and iTRAQ 117) and the combined samples were analyzed with a nano-flow liquid chromatography system coupled online to a tandem mass spectrometer (LC-MS/MS) experiment followed by iTRAQ reporter ion quantification in the MS/MS spectra as described in Example 2. The identified kinases are shown in Table 7 including the percent competition values for the sample to which 10 μM free compound had been added. In total of 83 different kinases were identified and competed by different degrees.

[2] = target: T2, kinases from mixed HeLa placenta lysates (Homo sapiens, UniProt Q14164); conditions: kinase IKKe; 10 μM free compound; HeLa Placenta lysate mix
T2 construct: capturing and identification of kinases from mixed HeLa placenta lysates; endogenous in cells; host or cells: mixed lysate of HeLa cells and placenta tissue
Experimental: as §1

[3] = target: T3, kinases from mixed HeLa placenta lysates (Homo sapiens, UniProt P45983); conditions: kinase JNK1; 10 μM free compound; HeLa Placenta lysate mix
T3 construct: capturing and identification of kinases from mixed HeLa placenta lysates; endogenous in cells; host or cells: mixed lysate of HeLa cells and placenta tissue
Experimental: as §1

[4] = target: T4, kinases from mixed HeLa placenta lysates (Homo sapiens, UniProt P50750); conditions: kinase CDK9; 10 μM free compound; HeLa Placenta lysate mix
T4 construct: capturing and identification of kinases from mixed HeLa placenta lysates; endogenous in cells; host or cells: mixed lysate of HeLa cells and placenta tissue
Experimental: as §1

[5] = target: T5, kinases from mixed HeLa placenta lysates (Homo sapiens, UniProt O43318); conditions: kinase MAP3K7; 10 μM free compound; HeLa Placenta lysate mix
T5 construct: capturing and identification of kinases from mixed HeLa placenta lysates; endogenous in cells; host or cells: mixed lysate of HeLa cells and placenta tissue
Experimental: as §1

[6] = target: T6, kinases from mixed HeLa placenta lysates (Homo sapiens, UniProt Q96C45); conditions: kinase ULK4; 10 μM free compound; HeLa Placenta lysate mix
T6 construct: capturing and identification of kinases from mixed HeLa placenta lysates; endogenous in cells; host or cells: mixed lysate of HeLa cells and placenta tissue
Experimental: as §1

[7] = target: T7, kinases from mixed HeLa placenta lysates (Homo sapiens, UniProt P12931); conditions: kinase SRC; 10 μM free compound; HeLa Placenta lysate mix
T7 construct: capturing and identification of kinases from mixed HeLa placenta lysates; endogenous in cells; host or cells: mixed lysate of HeLa cells and placenta tissue
Experimental: as §1

[8] = target: T8, kinases from mixed HeLa placenta lysates (Homo sapiens, UniProt P28482); conditions: kinase Erk2; 10 μM free compound; HeLa Placenta lysate mix
T8 construct: capturing and identification of kinases from mixed HeLa placenta lysates; endogenous in cells; host or cells: mixed lysate of HeLa cells and placenta tissue
Experimental: as §1

[9] = target: T9, kinases from mixed HeLa placenta lysates (Homo sapiens, UniProt Q7KZI7); conditions: kinase MARK2; 10 μM free compound; HeLa Placenta lysate mix
T9 construct: capturing and identification of kinases from mixed HeLa placenta lysates; endogenous in cells; host or cells: mixed lysate of HeLa cells and placenta tissue
Experimental: as §1

[10] = target: T10, kinases from mixed HeLa placenta lysates (Homo sapiens, UniProt Q9H2G2); conditions: kinase SLK; 10 μM free compound; HeLa Placenta lysate mix
T10 construct: capturing and identification of kinases from mixed HeLa placenta lysates; endogenous in cells; host or cells: mixed lysate of HeLa cells and placenta tissue
Experimental: as §1

[11] = target: T11, kinases from mixed HeLa placenta lysates (Homo sapiens, UniProt P43405); conditions: kinase SYK; 10 μM free compound; HeLa Placenta lysate mix
T11 construct: capturing and identification of kinases from mixed HeLa placenta lysates; endogenous in cells; host or cells: mixed lysate of HeLa cells and placenta tissue
Experimental: as §1

[12] = target: T12, kinases from mixed HeLa placenta lysates (Homo sapiens, UniProt P48426); conditions: kinase PIP5K2A; 10 μM free compound; HeLa Placenta lysate mix
T12 construct: capturing and identification of kinases from mixed HeLa placenta lysates; endogenous in cells; host or cells: mixed lysate of HeLa cells and placenta tissue
Experimental: as §1

[13] = target: T13, kinases from mixed HeLa placenta lysates (Homo sapiens, UniProt P51812); conditions: kinase RSK2; 10 μM free compound; HeLa Placenta lysate mix
T13 construct: capturing and identification of kinases from mixed HeLa placenta lysates; endogenous in cells; host or cells: mixed lysate of HeLa cells and placenta tissue
Experimental: as §1

[14] = target: T14, kinases from mixed HeLa placenta lysates (Homo sapiens, UniProt Q13976); conditions: kinase PKG1; 10 μM free compound; HeLa Placenta lysate mix
T14 construct: capturing and identification of kinases from mixed HeLa placenta lysates; endogenous in cells; host or cells: mixed lysate of HeLa cells and placenta tissue
Experimental: as §1

[15] = target: T15, kinases from mixed HeLa placenta lysates (Homo sapiens, UniProt P42680); conditions: kinase TEC; 10 μM free compound; HeLa Placenta lysate mix
T15 construct: capturing and identification of kinases from mixed HeLa placenta lysates; endogenous in cells; host or cells: mixed lysate of HeLa cells and placenta tissue
Experimental: as §1

[16] = target: T16, kinases from mixed HeLa placenta lysates (Homo sapiens, UniProt P45984); conditions: kinase JNK2; 10 μM free compound; HeLa Placenta lysate mix
T16 construct: capturing and identification of kinases from mixed HeLa placenta lysates; endogenous in cells; host or cells: mixed lysate of HeLa cells and placenta tissue
Experimental: as §1

[17] = target: T17, kinases from mixed HeLa placenta lysates (Homo sapiens, UniProt Q00535); conditions: kinase CDK5; 10 μM free compound; HeLa Placenta lysate mix
T17 construct: capturing and identification of kinases from mixed HeLa placenta lysates; endogenous in cells; host or cells: mixed lysate of HeLa cells and placenta tissue
Experimental: as §1

[18] = target: T18, kinases from mixed HeLa placenta lysates (Homo sapiens, UniProt O94804); conditions: kinase LOK; 10 μM free compound; HeLa Placenta lysate mix
T18 construct: capturing and identification of kinases from mixed HeLa placenta lysates; endogenous in cells; host or cells: mixed lysate of HeLa cells and placenta tissue
Experimental: as §1

[19] = target: T19, kinases from mixed HeLa placenta lysates (Homo sapiens, UniProt O75676); conditions: kinase MSK2; 10 μM free compound; HeLa Placenta lysate mix
T19 construct: capturing and identification of kinases from mixed HeLa placenta lysates; endogenous in cells; host or cells: mixed lysate of HeLa cells and placenta tissue
Experimental: as §1

[20] = target: T20, kinases from mixed HeLa placenta lysates (Homo sapiens, UniProt Q05397); conditions: kinase FAK; 10 μM free compound; HeLa Placenta lysate mix
T20 construct: capturing and identification of kinases from mixed HeLa placenta lysates; endogenous in cells; host or cells: mixed lysate of HeLa cells and placenta tissue
Experimental: as §1

[21] = target: T21, kinases from mixed HeLa placenta lysates (Homo sapiens, UniProt P53350); conditions: kinase PLK1; 10 μM free compound; HeLa Placenta lysate mix
T21 construct: capturing and identification of kinases from mixed HeLa placenta lysates; endogenous in cells; host or cells: mixed lysate of HeLa cells and placenta tissue
Experimental: as §1

[22] = target: T22, kinases from mixed HeLa placenta lysates (Homo sapiens, UniProt P19784); conditions: kinase CK2a2; 10 μM free compound; HeLa Placenta lysate mix
T22 construct: capturing and identification of kinases from mixed HeLa placenta lysates; endogenous in cells; host or cells: mixed lysate of HeLa cells and placenta tissue
Experimental: as §1

[23] = target: T23, kinases from mixed HeLa placenta lysates (Homo sapiens, UniProt P29597); conditions: kinase TYK2; 10 μM free compound; HeLa Placenta lysate mix
T23 construct: capturing and identification of kinases from mixed HeLa placenta lysates; endogenous in cells; host or cells: mixed lysate of HeLa cells and placenta tissue
Experimental: as §1

[24] = target: T24, kinases from mixed HeLa placenta lysates (Homo sapiens, UniProt P06493); conditions: kinase CDC2; 10 μM free compound; HeLa Placenta lysate mix
T24 construct: capturing and identification of kinases from mixed HeLa placenta lysates; endogenous in cells; host or cells: mixed lysate of HeLa cells and placenta tissue
Experimental: as §1

CS(=O)(=O)Nc1ccccc1Nc1nc(Nc2cccc(OCCN)c2)ncc1F [CZC25342, N-(2-(2-(3-(2-aminoethoxy)phenylamino)-5-fluoropyrimidin-4-ylamino)phenyl)methanesulfonamide]
Competition % MAP3K2 [1]: 94.7% | Competition % IKKe [2]: 69% | Competition % JNK1 [3]: 84.3% | Competition % CDK9 [4]: 97.6% | Competition % MAP3K7 [5]: 85.8% | Competition % ULK4 [6]: 84.7% | Competition % SRC [7]: 89.5% | Competition % Erk2 [8]: 48.5% | Competition % MARK2 [9]: 93.4% | Competition % SLK [10]: 95.2% | Competition % SYK [11]: 94.8% | Competition % PIP5K2A [12]: 98.7% | Competition % RSK2 [13]: 95.6% | Competition % PKG1 [14]: 79.3% | Competition % TEC [15]: 89.3% | Competition % JNK2 [16]: 83.8% | Competition % CDK5 [17]: 92.6% | Competition % LOK [18]: 97.7% | Competition % MSK2 [19]: 93.2% | Competition % FAK [20]: 96% | Competition % PLK1 [21]: 94.6% | Competition % CK2a2 [22]: 95.4% | Competition % TYK2 [23]: 96.6% | Competition % CDC2 [24]: 94.3%
